According to patent publication US20180312539A1, “METHODS FOR PREPARING HIGH THROUGHPUT PEPTIDOMIMETICS, ORALLY BIOAVAILABLE DRUGS AND COMPOSITIONS CONTAINING SAME” (University of Southern California, priority 2011, published 2018):
Each block holds one compound with its values, some of them ahead of it. *1 amine or outer side, *2 acyl side, *3 side chain or, on linkers, in order; H or OH if unused. Where a SMILES comes first, the peptide text is derived from it. Bridges are numbered along the chain shown (N, C = ends). [ ]: non-standard residue; d: D form. The star is where a group is joined. 5FAM = O=C1OC2(c3ccc(O)cc3Oc3cc(O)ccc32)c2ccc(C(=O)*)cc21; Palmitoleoyl = CCCCCC/C=C\CCCCCCCC(=O)*; Glutaryl = O=C(CCCC(=O)[*:2])[*:1]; NMeNva = CCC[C@H](NC)C(=O)O; NMeA = CN[C@@H](C)C(=O)O

Columns and labels:
b = assay: b
Excerpt: Table printed on a drawing sheet, FIGURES 5A and 5B
FIG. 5A is Vmax for chymotrypsin digestion of cycGIBP(•), linSUPR(♦), and cycSUPR(▪). A close up of linSUPR and cycSUPR is embedded in the Figure to show the data in more detail. FIG. 5B is a Table showing values for Km and Vmax as derived by processing the data through Graphpad Prism 5.0. Both Km and Vmax are highly optimized for protease resistance in cycSUPR peptide when compared to cycGIBP.
First reader's note: Km and Vmax are kinetic parameters of chymotrypsin digestion of the peptides (protease stability); the sheet prints no unit for Km.

[1] = mouse, in vivo, iv, 10 mg/kg
Experimental: (§1) 200 μL of peptide was administered by IV injection into the tail vein of C57BL6 mice at a dose of 10 mg/kg. 50 μL blood samples were taken at various time points by orbital bleeding using heparin coated capillary tubes and isoflurane for anesthesia. Samples are diluted to 600 μLin TE buffer (pH=8.0) then filtered by centrifugation through a 3000 MWCO filter. The flowthrough was analyzed on a Shimadzu RF-5301 PC fluorometer. Time points were integrated and analyzed using Prism 5.0 software.
(§2) To that end mice were administered peptide conjugated to fluorescein by IV injection into the tail vein. Blood samples were taken by orbital bleeding. Blood peptide concentration was determined by comparing fluorescence to a 15 minute time point.

[2] = mouse, iv
Experimental: as §1, §2

[3] = design: species or system C57BL6 mice; settings: mouse, in vivo, 10 mg/kg
Experimental: The following peptides were synthesized for oral administration: […](FAM) (SEQ ID NO: 14), […](FAM)DK(Palmitoleic acid) (SEQ ID NO: 15), and […](FAM) (SEQ ID NO: 16), wherein FAM is a lysine derivative containing fluorescein. All peptides were cyclized from the side chain to lysine to the N-terminus as previously described. Anesthetized C57BL6 mice had peptide administered at a dose of 10 mg/kg by oral gavage. After administration, mice were removed from isoflurane. At various time points, blood samples were taken by orbital bleeding as previously described. Peaks were normalized to a 15 minute time point from mice that had peptide administered by IV injection.
The following peptides were synthesized for oral administration: […](FAM) (SEQ ID NO: 14), […](FAM) (SEQ ID NO: 16), […](FAM)DK(biotin) (SEQ ID NO: 38), and […](FAM)DK(Palmitoleic acid) (SEQ ID NO: 15). All peptides were cyclized from the side chain to lysine to the N-terminus as previously described in Millward, S. W. et al. (2007) ACS Chem. Biol. 2:625. Anesthetized C57BL6 mice had peptide administered at a dose of 10 mgs/Kg by oral gavage. After administration, mice were removed from isoflurane. At various time points, blood samples were taken by orbital bleeding as previously described. Peaks were normalized to a 20 minute time point from mice that had peptide administered by IV injection. Area under the curve was analyzed by Graphpad 5.0.
In addition to accessing intracellular targets in cell culture, deriving a simple modification that would facilitate oral bioavailability of peptidic ligands would be greatly beneficial for therapeutic development. Intestinal absorption of both fatty acids and biotin is nearly 100% efficient. Zempleni, J. and Mock, D. M. (1999) The American Journal of Clinical Nutrition 69:504. […] Applicants synthesized a protease resistant peptide with the sequence […]-mod (designated SUPR peptide) (SEQ ID NO: 50), where A is N-methyl alanine, the peptide is cyclized from lysine to the N-terminus, and K(mod) is lysine with a modified sidechain including either biotin or palmitoleic acid. Palmitoleic acid is a monounsaturated fatty acid chosen for its ability to bind human serum albumin, and its low melting point allowing for more favorable solubility of conjugated peptides as compared to […] fatty acid conjugates. This peptide was administered to mice at a dose of 10 mg/kg by oral gavage. At various time points, blood was taken from the mice by orbital bleeding. After processing, fluorescence was quantified and compared to the maximum signal obtained by IV injection of peptide at the same dose.

SKBR-3 cells = assay type: cell-based, human
Experimental: Proliferation was measured by standard BrdU cell proliferation assay (Calbiochem). Cell lines were plated in 96-well plates (20,000 cells/well) in D-10 media with indicated amount of peptide with 2% DMSO, and incubated overnight. The BrdU compound was given to the cells for 2 hrs. Following the manufacturer's protocol, samples were analyzed by UV absorbance measurements at 450 nm. Peptide signal was normalized to cells incubated with 2% DMSO but no peptide. IC50 data was generated by fitting the data to a drug response equation (Log(drug) vs. Response, GraphPad Prism 5.0).
The peptides were then screened for function using a standard in vitro assays used to test efficacy of Her-2 targeting molecules. The assay involved analyzing a molecule's ability to inhibit proliferation in cell culture. A widely used kit is the BrdU cell proliferation assay. In this assay, cells are incubated with the molecule of interest before having their media supplemented with a bromodeoxyuridine. Bromodeoxyuridine is incorporated into the DNA of proliferating cells. DNA with this modified base is recognized with an antibody, and quantitated by ELISA. Applicants tested the peptides and compared them with their parental molecules.

blood sugar = assay: Blood glucose response to insulin; assay type: in vivo, C57BL6 mice; settings: oral gavage, 7 nmol/kg
Experimental: Experimental procedure followed previously published protocols with slight modification, see e.g., (McKern, N. M., et al. (2006) Nature 443:218; Schïffer, L., et al (2003) PNAS 100:4435). Briefly, C57BL6 mice (4 in each group) fasted overnight and were anesthetized using isoflurane prior to taking blood samples by orbital bleeding. Mice were dosed with insulin or biotinylated insulin at a concentration of 3.5 nmol/kg by IV injection into the tail vein. […] In all cases, insulin was in 150 μL of 50 mM sodium phosphate buffer (pH=8.0). Blood was analyzed on a standard Clarity Plus blood glucose meter (VWR). Readings were normalized to a T=0 blood sugar measurement, and analyzed on Graphpad 5.0.
Reacting human insulin with biotin-NHS produced three distinct products that can be separated by HPLC. […] Calceti, P. et al. (2004) European Journal of Pharmaceutical Sciences 22:315; and Tuesca, A., et al. (2009) Pharmaceutical Research 26:727.
Biotinylated insulin and insulin were fed to mice by oral gavage. […] The longer duration of response is likely due to the kinetics of absorption by the intestinal mucosa.

[4] = PAMPA (parallel artificial membrane permeability assay); assay type: in vitro ADME; settings: lauric acid in place of biotin
Experimental: PAMPA assays were set up following manufacturer's instructions. Briefly, 1% phosphatidyl choline (Sigma) was dissolved in dodecane (Sigma) at 65° C. for 3 min. The membrane was applied to each well as per manufacturer's instructions. […] 100 μL of sample was put into each donor well. The acceptor wells contained 300 μL of a 5% DMSO in PBS solution. Passive diffusion was allowed to occur at room temperature for 24 hrs. […] Absorbance at 215 nm was monitored. The area under the peptide peak was integrated.
The acceptor well contained 10 mM DTT as a reducing agent. Data was collected after 6, 12 and 24 hrs. Absorbance at 280 nm was analyzed. The following formula was used to calculate Log Pe: […]
Applicants employed a parallel artificial membrane permeability assay (PAMPA) that will allow for the rapid screening of peptide passive diffusion across a phospholipid bilayer. (Schmidt, et al. (2003) J. Millipore Corporation Application Note AN1729EN00.). In this assay, two chambers are separated by a phospholipid bilayer supported on an inert membrane. Applicants chose to initially focus Applicants examination on peptide ligands developed to bind with high affinity to the heterotrimeric G-proteins Gαi1*GDP and Gα12*GDP. Ja, W. W., et al. (2004) Biochemistry 43:9265; Millward, S. W., et al. (2007) ACS Chem. Biol. 2:625; Fiacco, S. et al. (2008) ChemBioChem 9:2200. These ligands included variations in sequence, size, overall charge, and polarity as well as comparing linear and cyclic peptides, end and biotinylation. […] According to classical methods of increasing permeability. Pinski, C. A., et al. (2001) Advanced Drug Delivery Reviews 46:3. Applicants postulated that the removal of hydrogen bond donors by N-methylation should further increase the permeability of this peptide.

[5] = Membrane localization on PAMPA membrane; assay type: in vitro ADME; settings: 0.2 mM peptide, 0 and 15 min
Excerpt: Membrane was set up as described above. […] Care was taken not to disrupt the membrane when samples were removed.
In order to study the mechanism of this enhanced permeation in more detail, Applicants quantitated the biotin-peptide conjugate's membrane localization.

[6] = as known in the field; cited from earlier work

Compound: CC[C@H](C)[C@@H]1NC(=O)[C@H](CCSC)NC(=O)CCCC(=O)NCCCC[C@@H](C(N)=O)NC(=O)[C@H]([C@@H](C)O)NC(=O)CNC(=O)[C@H](C)NC(=O)[C@H](C(C)C)NC(=O)[C@H](Cc2ccccc2)NC(=O)[C@H](CCC(=O)O)NC(=O)[C@H](Cc2ccc(O)cc2)NC(=O)[C@H](Cc2c[nH]c3ccccc23)NC(=O)[C@H]([C@@H](C)O)NC1=O [cycGIBP] (MITWYEFVAGTK-NH2; linker N-12 via Glutaryl)
Vmax (b): 37 nmol/s

Compound: CC[C@H](C)[C@@H]1NC(=O)[C@H](CCSC)NC(=O)CCCC(=O)NCCCC[C@@H](C(N)=O)NC(=O)[C@H]([C@@H](C)O)NC(=O)CNC(=O)[C@H](C)NC(=O)[C@H](C(C)C)NC(=O)[C@H](Cc2ccccc2)NC(=O)[C@H](CCC(=O)O)NC(=O)[C@H](Cc2ccc(O)cc2)NC(=O)[C@H](Cc2c[nH]c3ccccc23)NC(=O)[C@H]([C@@H](C)O)NC1=O [cycGIBP, reference compound] (MITWYEFVAGTK-NH2; linker N-12 via Glutaryl)
half-life [1]: 0.0517 h

fold increase in in vivo half-life over cycGIBP [2]: 354 fold | bioavailability [3]: 9.8% | oral uptake efficiency ([3]; po): 9.4% | half-life [1]: 18.3 h
Compound: CCCCCC/C=C\CCCCCCCC(=O)NCCCC[C@@H](NC(=O)[C@H](CCCCNC(=O)c1ccc2c(c1)C(=O)OC21c2ccc(O)cc2Oc2cc(O)ccc21)NC(=O)[C@@H]1CCCCNC(=O)CCCC(=O)N[C@@H](CCSC)C(=O)N[C@@H](Cc2ccccc2)C(=O)N[C@@H](Cc2ccc(O)cc2)C(=O)N(C)[C@@H](C)C(=O)N[C@@H](Cc2ccc(O)cc2)C(=O)N[C@@H](CCC(=O)O)C(=O)N[C@@H](Cc2ccc(O)cc2)C(=O)N(C)[C@@H](C)C(=O)N[C@@H](CCC(N)=O)C(=O)N[C@@H](Cc2c[nH]c3ccccc23)C(=O)N[C@@H](CO)C(=O)N1)C(=O)O [FA-cycSUPR] (MFY[NMeA]YEY[NMeA]QWSKK(5FAM)[dK](Palmitoleoyl)-OH; linker N-12 via Glutaryl)

Compound: CCC[C@H]1C(=O)N(C)[C@@H](CCC)C(=O)N[C@@H](CC(C)C)C(=O)N[C@@H](Cc2ccc(O)cc2)C(=O)N[C@@H](CC(=O)O)C(=O)N[C@@H](CC(=O)O)C(=O)N[C@H](C(N)=O)CCCCNC(=O)CCCC(=O)N[C@@H](CCSC)C(=O)N[C@@H](C(C)C)C(=O)N[C@@H](CS)C(=O)N1C [Peptide D] (MVC[NMeNva][NMeNva]LYDDK-NH2; linker N-10 via Glutaryl (inferred); C-terminus assumed)
fold improvement with respect to parental molecule (SKBR-3 cells; EC50/IC50 ratio, peptide 1 vs HRAP, peptide D vs ANHP): ~110 fold | proliferation relative to untreated cells (maximal effect) (SKBR-3 cells; concentrations significantly above the EC50): 56%

Compound: insulin: unmodified human insulin [reference compound]
effect on blood sugar (blood sugar): no effect on blood sugar

Compound: biotinylated insulin: human insulin singly biotinylated on the N-terminus of the B-chain
effect on blood sugar (blood sugar): produced a typical insulin response

Compound: CCCCCCCCCCCC(=O)O [Lauric acid]
Log Pe [4]: −6.8 | membrane localization [5]: 27%

Compound: CCCCCC/C=C\CCCCCCCC(=O)O [palmitoleic acid]
oral bioavailability [6]: ~100%
